Experimental data: PubChem BioAssay AID330 (DTP/NCI, 2004)
Values joined by “and” are separate entries in the source; they are usually repeats but may differ in a detail not shown here. Identical values can stand only once. Inconclusive results and toxic doses are left out. How the source made its calls: active means survival T/C of 150% or more; inactive means T/C below 125% in these data.

System: P388 leukemia ip, CD2F1 mice, survival T/C
Assay: NCI In Vivo Anticancer Drug Screen. Data for tumor model P388 Leukemia (intraperitoneal) in CD2F1 (CDF1) mice
Details: endpoint: median survival time, higher = longer survival
Method in brief: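 Mice carrying the transplanted tumor received test compound or vehicle. Survival was recorded in each group, and the value is the treated-group measurement divided by that of the vehicle-treated control group.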

[1] = dose: 50.0 mg/kg/injection, schedule: Q01DX009 (ip), vehicle: saline with Tween-80
[2] = dose: 100.0 mg/kg/injection, schedule: Q01DX009 (ip), vehicle: saline with Tween-80
[3] = dose: 60.0 mg/kg/injection, schedule: Q01DX005 (ip), vehicle: saline with Tween-80
[4] = dose: 200.0 mg/kg/injection, schedule: Q01DX005 (ip), vehicle: saline with Tween-80

Measured: T/C

Cc1cc(=O)c2ccccc2s1
inactive: [1] 104 % of control | [2] 113 % of control

CCCCOc1cccc2c(NCCCCNCCCNc3c4ccccc4nc4c(OCCCC)cccc34)c3ccccc3nc12
inactive: dose: 0.63 mg/kg/injection, schedule: Q01DX009 (ip), vehicle: other 105 % of control | dose: 1.25 mg/kg/injection, schedule: Q01DX009 (ip), vehicle: other 120 % of control | dose: 2.5 mg/kg/injection, schedule: Q01DX009 (ip), vehicle: other 111 % of control | dose: 5.0 mg/kg/injection, schedule: Q01DX009 (ip), vehicle: other 121 % of control

CN(C)C(=S)/N=c1\ss/c(=N/C(=S)N(C)C)n1-c1ccc([N+](=O)[O-])cc1
inactive: dose: 6.25 mg/kg/injection, schedule: Q01DX009 (ip), vehicle: saline with Tween-80 102 % of control | dose: 12.5 mg/kg/injection, schedule: Q01DX009 (ip), vehicle: saline with Tween-80 103 % of control | dose: 25.0 mg/kg/injection, schedule: Q01DX009 (ip), vehicle: saline with Tween-80 103 % of control

O=C1OC(OCC#CCOC2OC(=O)C(Cl)=C2Cl)C(Cl)=C1Cl (stereo not drawn)
inactive: dose: 15.0 mg/kg/injection, schedule: Q01DX005 (ip), vehicle: saline with Tween-80 112 % of control | dose: 30.0 mg/kg/injection, schedule: Q01DX005 (ip), vehicle: saline with Tween-80 105 % of control | [3] 115 % of control and 93 % of control

O=[N+]([O-])c1ccc(NCc2ccccc2)nc1
inactive: [1] 107 % of control | [2] 117 % of control | dose: 200.0 mg/kg/injection, schedule: Q01DX009 (ip), vehicle: saline with Tween-80 112 % of control

C=CCC12C[C@H](OC)[C@@H](O)[C@](OC)(C1O)[C@H](c1ccc3c(c1)OCO3)[C@H]2C (stereo partly drawn)
inactive: dose: 16.25 mg/kg/injection, schedule: Q01DX005 (ip), vehicle: Klucel (hydroxypropylcellulose) (HPC) 108 % of control | dose: 32.5 mg/kg/injection, schedule: Q01DX005 (ip), vehicle: Klucel (hydroxypropylcellulose) (HPC) 98 % of control | dose: 65.0 mg/kg/injection, schedule: Q01DX005 (ip), vehicle: Klucel (hydroxypropylcellulose) (HPC) 99 % of control | dose: 130.0 mg/kg/injection, schedule: Q01DX005 (ip), vehicle: Klucel (hydroxypropylcellulose) (HPC) 89 % of control

Cc1ccc(Cc2nnc(C)c3c(C)[nH]nc23)cc1
inactive: dose: 50.0 mg/kg/injection, schedule: Q01DX009 (ip), vehicle: Klucel (hydroxypropylcellulose) (HPC) 100 % of control | dose: 100.0 mg/kg/injection, schedule: Q01DX009 (ip), vehicle: Klucel (hydroxypropylcellulose) (HPC) 95 % of control | dose: 200.0 mg/kg/injection, schedule: Q01DX009 (ip), vehicle: Klucel (hydroxypropylcellulose) (HPC) 93 % of control

CCc1n[nH]c(CC)c1CCCCCCOc1ccc(OC)cc1Cl
inactive: dose: 50.0 mg/kg/injection, schedule: Q01DX005 (ip), vehicle: saline with Tween-80 102 % of control | [3] 100 % of control | dose: 100.0 mg/kg/injection, schedule: Q01DX005 (ip), vehicle: saline with Tween-80 105 % of control | dose: 120.0 mg/kg/injection, schedule: Q01DX005 (ip), vehicle: saline with Tween-80 93 % of control | [4] 108 % of control | dose: 240.0 mg/kg/injection, schedule: Q01DX005 (ip), vehicle: saline with Tween-80 106 % of control

COC(=O)/C=C/N(Cc1ccccc1)/N=N/N(/C=C/C(=O)OC)Cc1ccccc1
inactive: dose: 6.25 mg/kg/injection, schedule: Q01DX005 (ip), vehicle: saline with Tween-80 101 % of control | dose: 12.5 mg/kg/injection, schedule: Q01DX005 (ip), vehicle: saline with Tween-80 95 % of control | dose: 25.0 mg/kg/injection, schedule: Q01DX005 (ip), vehicle: saline with Tween-80 97 % of control | [4] 87 % of control

COc1ccc(C(=O)/C=C/c2ccc3c(c2)OCO3)c(OCc2ccccc2)c1
inactive: dose: 3.75 mg/kg/injection, schedule: Q01DX009 (ip), vehicle: Klucel (hydroxypropylcellulose) (HPC) 98 % of control | dose: 7.5 mg/kg/injection, schedule: Q01DX009 (ip), vehicle: Klucel (hydroxypropylcellulose) (HPC) 99 % of control | dose: 15.0 mg/kg/injection, schedule: Q01DX009 (ip), vehicle: Klucel (hydroxypropylcellulose) (HPC) 98 % of control | dose: 30.0 mg/kg/injection, schedule: Q01DX009 (ip), vehicle: Klucel (hydroxypropylcellulose) (HPC) 94 % of control

CC[N+](CC)(CC)CC
inactive: dose: 3.13 mg/kg/injection, schedule: Q04DX003 (ip), vehicle: saline with Tween-80 100 % of control | dose: 12.5 mg/kg/injection, schedule: Q04DX003 (ip), vehicle: saline with Tween-80 118 % of control
